For the test, the system named is canine genes. Nature of the test: Canine cell culture genomic assay: modification of gene expression in vitro (Affymetrix canine gene chips). Further details: key: those genes that are modified by capsaicin are identified by an asterix (*). The format is cell-based. Particulars: canine cell lines CCL34, CRL1430, CCL183, CTAC; up or down regulation. As for the experimental part:
We have compiled a database of substances known to modify the expression of various canine genes in canine cells in vitro according to the following methods provided below and previously described (see, e.g., U.S. 2006-0200320 Al).
Test substances are assayed in two concentrations using the following canine cell lines: CCL34 (kidney), CRL1430 (thymus), CCL183 (bone) (all obtained from the American Tissue Culture Collection) and CTAC (thyroid) (see, Measurement of NK Activity in Effector Cells Purified from Canine Peripheral Lymphocytes, Veterinary Immunology and Immunopathology, 35 (1993) 239-25 1). Briefly, cells are cultured in OptiCell chambers according to conventional methods and the next day treated with test substance. The solvent used at the higher of the two concentrations is used as a control. The following day the cells are harvested for genomic assay.
RNA is isolated from the canine cultures using commercially available methods, e.g., an RNAeasy Mini Kit (Qiagen, Valencia, Calif.) according to the manufacturers instructions and conventional methods. The quality of the isolated RNA is analyzed using a RNA 6000 Nano Assay and an Agilent 2100 Bioanalyzer. The procedure is performed according to the manufacturer's instructions provided in the Reagent Kit Guide (see Edition November 2003, by Agilent Technologies) with the following modifications: during gel preparation, rather than separating the filtered gel into aliquots of 65 uL each, the stock filtered gel is kept in the original microcentrifuge tube and the 65 uL is aliquoted as needed; while loading the RNA 6000 Nano Marker, 1 uL of RNase-free water (instead of RNA 6000 Nano Marker) is added to each sample well that will not contain sample. When loading the RNA 6000 Ladder and samples, heat denature the samples and RNA 6000 Ladder for an additional 30 seconds (total of 2.5 minutes) at 71° C.; with regard to “Starting the Chip Run”, choose the “Eukaryote Total RNA Nano” option from the assay menu.
Gene expression is measured for the treatment cell lines and controls using Affymetrix canine gene chips Canine-1 and Canine-2 according to the manufacturer's instructions. Gene expression data is determined to be either “up” or “down”-regulated for any given treatment. The decision on whether a gene is “up” or “down” is based on the fold change, which is calculated as treatment intensity/control intensity for each individual probe. […] Also, a probe is considered significant for further scrutiny if it is called as “present” in only one of the conditions being compared (treatment or control) and is “absent” or “marginal” in the other and the fold change is significant according to the software used. Probes that appear to be regulated in opposite directions in the two treatments are excluded from further analysis. The raw data is analyzed using GeneSpring version 7.0 (GS) software (Agilent Corporation) and validated using the R-Bioconductor (RB) freeware. Both software packages are used to compute probe intensities from the CEL files generated by the Affymetrix Instrument. The Present/Absent/Marginal calls per probe and P-values are computed using the R-Bioconductor and GeneSpring software separately.
Two schemes are used for data analysis. First: “across cell lines” and “within individual cell lines.” In the first scheme, genes are selected for scoring provided they are found to be significant and common across all cell-lines. The “across cell lines” yields the highest confidence data with minimum noise and may provide the best possible clues as to which genes are affected by individual ingredients. In the second scheme, only those genes that show a significant fold change in the two treatments according to both software packages within an individual cell lines are scored.
Table 1A provided hereinabove is a list of canine genes the expression of which is modified in vitro in the presence of various compounds. […]

Marks after values point to notes of the source that are not given here.

Take `COc1cc(CNC(=O)CCCCC=CC(C)C)ccc1O` [capsaicin, 8-methyl-N-vanillyl-6-nonenamide]: the “expression of Complement component 4 modified in canine cells in vitro” value is “Complement component 4 *”, the “expression of Fragilis/homolog to rat interferon-inducible protein modified in canine cells in vitro” value was “protein*”, the “expression of Homolog to Homo sapiens interferon-induced 35-kDa protein modified in canine cells in vitro” value was “kDa protein*” and the “expression of L-Plastin/lymphocyte cytosolic protein 1 modified in canine cells in vitro” value was “L-Plastin/lymphocyte cytosolic protein 1*”. In addition, the “expression of α Cytochrome b558/cytochrome b-245 modified in canine cells in vitro” value is recorded as “^α Cytochrome b558/cytochrome b-245 *” and the “expression of α Tubulin, 1 modified in canine cells in vitro” value is on record as “^α Tubulin, 1 *”.
